US5413993A, “Method for the treatment of narcotic withdrawal symptoms in animals using lipopolysaccharides” (priority 1992, dated 1995)

How the values were obtained:
[1] = in vivo; cited from earlier work
withdrawal body shake = details: intraperitoneal, 0.16 mg/kg; cited from earlier work
[2] = Convulsions on intravenous clonidine (inventors' finding); format: in vivo; details: 10 mg/kg
[3] = system: jumping, a severer withdrawal symptom; details: intravenous, 0.1-0.10 mg/kg
[4] = in vivo; cited from earlier work; remark: listed apart in the source

In the case of `C[C@]12N[C@H](Cc3ccccc31)c1ccccc12` [Dizocilipine, dizocilpine], the “difference between toxic and effective doses” value [1] is listed as “extremely small difference between its toxic and effective doses”.

For `Clc1cccc(Cl)c1N=C1NCCN1` [Clonidine, clonidine], the “suppression of withdrawal body shake” value (withdrawal body shake) is given as “suppress withdrawal body shake”, the convulsions [2] is given as “causes convulsions” and the suppression of jumping [3] is given as “fails to suppress jumping”.

For `CCC(=O)C(CC(C)N(C)C)(c1ccccc1)c1ccccc1` (centres unmarked) [Methadone], the dependence to itself [4] is listed as “cause dependence to itself”.
